Usually Ki stands for a dissociation constant, usually derived from enzyme kinetics or from competition with a known ligand.

Here are results for 4 compounds from ChEMBL document CHEMBL1127015, “Centrally acting serotonergic and dopaminergic agents. 1. Synthesis and structure-activity relationships of 2,3,3a,4,5,9b-hexahydro-1H-benz[e]indole derivatives” (J Med Chem, 1993).

“And” between values parts separate entries of the source, which are not always exact repeats. Identical values can stand only once.

Test [1] deals with Mus musculus. The test can be described thus: Ability to stimulate dopaminergic systems by effect on locomotor activity in reserpinized mice when a dose of 3.5 micro mol/kg is administered intraperitoneally. The class given is functional.
Test [2] addresses T1, D(2) dopamine receptor (Homo sapiens, UniProt P14416). The test can be described thus: Compound was evaluated for the intrinsic activity from GTP shift against dopamine receptor D2. The class given is functional.
Test [3] deals with Mus musculus. In words: Antagonism of apomorphine in reserpinized mice when a dose of 35 micro mol/kg is administered intraperitoneally. The class given is functional.
The test system of test [4] is Mus musculus. In words: Antagonism of apomorphine for 10-20 minutes in reserpinized mice when a dose of 35 micro mol/kg is administered intraperitoneally. The class given is functional.
Test [5] concerns Mus musculus. The test can be described thus: Antagonism of apomorphine in reserpinized mice when a dose of 3.5 micro mol/kg is administered intraperitoneally. The class given is functional.
Test [6] deals with Mus musculus. The test can be described thus: Ability to stimulate dopaminergic systems by effect on locomotor activity in reserpinized mice when a dose of 35 micro mol/kg is administered intraperitoneally. The class given is functional.
The test system of test [7] is Mus musculus. In words: Antagonism of apomorphine for 0-10 minutes in reserpinized mice when a dose of 3.5 micro mol/kg is administered intraperitoneally. The class given is functional.
In test [8] the test system is Mus musculus. In words: Antagonism of apomorphine for 0-10 minutes in reserpinized mice when a dose of 35 micro mol/kg is administered intraperitoneally. It is filed as functional.
For test [9], the system named is Mus musculus. In words: Increase in locomotor activity in reserpinized mice following 0.4 umol/kg i.p. The class given is functional.
The test system of test [10] is Mus musculus. The test can be described thus: Antagonism of apomorphine effects in reserpinized mice following 0.4 umol/kg i.p. It is filed as functional.
The subject of test [11] is Mus musculus. In words: Antagonism of apomorphine effects for 0-10 minutes in reserpinized mice following 0.4 umol/kg i.p. More on the design: unit not given beside the values. It is filed as functional.
Test [12] concerns Mus musculus. In words: Antagonism of apomorphine for 10-20 minutes in reserpinized mice when a dose of 3.5 micro mol/kg is administered intraperitoneally. The class given is functional.
The target of test [13] is T2, D(2) dopamine receptor (Rattus norvegicus, UniProt P61169). The test can be described thus: Binding affinity against [3H]raclopride-labeled dopamine receptor D2 in rat striatum. It is filed as tissue-based.
T2 sequence (P61169 whole entry): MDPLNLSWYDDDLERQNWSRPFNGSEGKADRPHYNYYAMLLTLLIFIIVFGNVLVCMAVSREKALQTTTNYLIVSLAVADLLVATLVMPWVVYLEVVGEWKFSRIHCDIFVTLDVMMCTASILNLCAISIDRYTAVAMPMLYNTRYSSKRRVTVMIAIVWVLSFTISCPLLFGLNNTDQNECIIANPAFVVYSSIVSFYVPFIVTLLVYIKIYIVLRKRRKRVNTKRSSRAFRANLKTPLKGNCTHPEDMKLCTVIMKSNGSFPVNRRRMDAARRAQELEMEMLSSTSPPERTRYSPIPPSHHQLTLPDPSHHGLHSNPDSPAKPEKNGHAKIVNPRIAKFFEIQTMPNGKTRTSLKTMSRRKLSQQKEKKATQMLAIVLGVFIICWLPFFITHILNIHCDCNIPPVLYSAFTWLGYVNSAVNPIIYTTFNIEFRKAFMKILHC
Test [14] has as its system Mus musculus. The test can be described thus: Antagonism of apomorphine effects for 10-20 minutes in reserpinized mice following 0.4 umol/kg i.p. It is filed as functional.
Test [15] concerns Rattus norvegicus. The test can be described thus: Effect on the synthesis rates of serotonin in the rat ventral limbic brain region 4.0 micro mol/kg. Values are given as percent change from the control. It is filed as functional, Limbic system.
The subject of test [16] is Mus musculus. The test can be described thus: Effective dose on hypothermia in mouse when administered subcutaneously (95% confidence levels). It is filed as functional. The settings on record: sc.
For test [17], the system named is Rattus norvegicus. In words: Effect on the synthesis rates of dopamine in the rat ventral limbic brain region at 4.0 micro mol/kg. Values are given as percent change from the control (*p<0.05). The class given is functional, Limbic system.
The target in test [18] is T2, D(2) dopamine receptor. In words: Inhibition concentration against [3H]raclopride-labeled dopamine receptor D2 in rat striatum was estimated by single point experiment. compound was run at 1 uM. It is filed as tissue-based.
Test [19] concerns Mus musculus. In words: Maximum decrease in temperature when compound is administered subcutaneously. It is filed as functional.
In test [20] the test system is Mus musculus. The test can be described thus: Ability to stimulate dopaminergic systems by effect on locomotor activity in reserpinized mice when a dose of 36 micro mol/kg is administered intraperitoneally. It is filed as functional.
Test [21] deals with Rattus norvegicus. In words: Inhibition of firing rates of dopaminergic neurons in the substantia nigra pars compacta by intravenous injection in rats. The class given is functional.
The test system of test [22] is Felis catus. The test can be described thus: Maximum decrease of sympathetic nerve activity (SND) in anesthetized cat has been expressed as percent control. It is filed as functional. More on the design: scale not given: the % may be the effect or the level left.
Test [23] deals with Felis catus. In words: Maximum decrease of arterial blood pressure at sympathetic nerve activity (SND) in anesthetized cat has been observed following 1 mg/kg dose. The class given is functional. On the set-up: scale not given: the % may be the effect or the level left.
The test system of test [24] is Mus musculus. The test can be described thus: Antagonism of apomorphine in reserpinized mice when a dose of 36 micro mol/kg is administered intraperitoneally. The class given is functional.
For test [25], the system named is Mus musculus. In words: Antagonism of apomorphine for 10-20 minutes in reserpinized mice when a dose of 36 micro mol/kg is administered intraperitoneally. It is filed as functional.
Test [26] concerns Mus musculus. The test can be described thus: Antagonism of apomorphine for 10-20 minutes in reserpinized mice when a dose of 3.6 micro mol/kg is administered intraperitoneally. The class given is functional.
In test [27] the test system is Mus musculus. The test can be described thus: Antagonism of apomorphine in reserpinized mice when a dose of 3.6 micro mol/kg is administered intraperitoneally. It is filed as functional.
The species named for test [28] is Rattus norvegicus. The test can be described thus: Effect on the synthesis rates of serotonin (5-HTP accumulation) in the rat ventral limbic brain region at 10.7uMkg. value as percent change from the control. It is filed as functional, Limbic system.
Test [29] has as its target T1, D(2) dopamine receptor. The test can be described thus: Intrinsic activity from GTP shift using membranes from CHO cells transfected with mammalian dopamine receptor D2. It is filed as cell membranes.
For test [30], the system named is Mus musculus. The test can be described thus: Ability to stimulate dopaminergic systems by effect on locomotor activity in reserpinized mice when a dose of 3.6 micro mol/kg is administered intraperitoneally. The class given is functional.
For test [31], the species on record is Rattus norvegicus. The test can be described thus: Effect on the synthesis rates of serotonin (5-HTP accumulation) in the rat ventral limbic brain region at 10.7uMkg. It is filed as functional, Limbic system.
Test [32] deals with Mus musculus. The test can be described thus: Antagonism of apomorphine for 0-10 minutes in reserpinized mice when a dose of 3.6 micro mol/kg is administered intraperitoneally. It is filed as functional.
Test [33] deals with Mus musculus. In words: Antagonism of apomorphine for 0-10 minutes in reserpinized mice when a dose of 36 micro mol/kg is administered intraperitoneally. It is filed as functional.
Test [34] deals with Mus musculus. In words: Effective dose on hypothermia in mouse when administered subcutaneously. The class given is functional. The settings on record: sc.
Test [35] relates to Rattus norvegicus. The test can be described thus: Inhibition of firing rates of dopaminergic neurons in the substantia nigra pars compacta by intravenous injection in rats. The class given is functional.
The test system of test [36] is Rattus norvegicus. In words: Inhibition of firing rates of serotonergic neurons in the substantia nigra pars compacta by intravenous injection in rats. It is filed as functional.

T1 sequence (P14416 whole entry): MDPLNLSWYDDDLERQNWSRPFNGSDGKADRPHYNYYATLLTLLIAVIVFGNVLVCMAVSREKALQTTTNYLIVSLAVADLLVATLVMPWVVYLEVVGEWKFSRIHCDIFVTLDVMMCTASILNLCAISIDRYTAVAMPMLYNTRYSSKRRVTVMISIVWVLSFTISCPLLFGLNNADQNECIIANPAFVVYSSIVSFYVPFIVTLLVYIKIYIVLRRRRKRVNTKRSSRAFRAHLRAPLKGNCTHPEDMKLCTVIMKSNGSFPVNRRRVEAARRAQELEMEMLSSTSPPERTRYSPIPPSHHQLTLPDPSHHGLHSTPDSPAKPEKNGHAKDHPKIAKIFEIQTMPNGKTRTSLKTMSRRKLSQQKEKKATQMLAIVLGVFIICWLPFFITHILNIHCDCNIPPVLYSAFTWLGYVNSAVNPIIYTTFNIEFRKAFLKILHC

As to `CCCN1CC[C@H]2c3c(cccc3OC)CC[C@H]21`, the Locomotor activity in the test on Mus musculus [1] was found to be 36; with Mus musculus [3], 9; in the test on Mus musculus [4] it was 51; with Mus musculus [5], 6; in the test with Mus musculus [6], 69; with Mus musculus [7], 72. The Locomotor activity in the test with Mus musculus [8] is listed as 49; in the test on Mus musculus [9], 19; with Mus musculus [10], 41; in the test on Mus musculus [11], 60; with Mus musculus [12] it was 67; with Mus musculus [14] it was 93. In addition, at D(2) dopamine receptor [2], the Intinsic activity stood at 37%. Further, the affinity on D(2) dopamine receptor [13] corresponds to a Ki of 67 nM.

For the compound `C=CCN1CC[C@@H]2c3ccccc3CC[C@H]21` (racemic), the Control in the test on Rattus norvegicus [15] is reported as -7%; in the test on Rattus norvegicus [17], 26%. Besides, in the test with Mus musculus [16], the ED50 was 45 µmol/kg. For the same compound, the Ki at D(2) dopamine receptor [18] was greater than 1000 nM. The compound further had a Max temperature decrease in the test with Mus musculus [19] of 4.5.

Turning to `C=CCN1CCC2c3cccc(OC)c3CC[C@H]21` (mixture of isomers), the Locomotor activity was 9 with Mus musculus [20]; 1 in the test with Mus musculus [24]; 17 with Mus musculus [25]; 15 in the test with Mus musculus [9]; 59 in the test on Mus musculus [26]; 73 in the test with Mus musculus [10]. For the same compound, the Locomotor activity in the test with Mus musculus [11] was 91; with Mus musculus [27], 27; in the test on Mus musculus [30] it was 9; with Mus musculus [14], 92; with Mus musculus [32], 112; in the test with Mus musculus [33], 33. Moreover, the ED50 in the test on Rattus norvegicus [21] is 0.42 µM/kg and 0.88 µM/kg; with Mus musculus [34], greater than 107 µmol/kg. Also, the Control is on record as 132% with Felis catus [22], 98% in the test on Felis catus [23], -4% in the test listed under Rattus norvegicus [28] and 147% in the test listed under Rattus norvegicus [31]. Also, at D(2) dopamine receptor [29], the Intrinsic activity is 0%. The same compound gave a Ki at D(2) dopamine receptor [13] of 42 nM.

Regarding `C=CCN1CC[C@H]2c3cccc(OC)c3CC[C@H]21`, the Locomotor activity was 3 in the test on Mus musculus [20]; 21 in the test on Mus musculus [24]; 38 in the test on Mus musculus [25]; 17 in the test with Mus musculus [9]; 105 with Mus musculus [26]; 78 with Mus musculus [10]. For the same compound, the Locomotor activity in the test on Mus musculus [11] worked out at 164; in the test with Mus musculus [27], 62; in the test on Mus musculus [30] it was 5; in the test on Mus musculus [14], 120; in the test on Mus musculus [32], 130; with Mus musculus [33], 52. In addition, the ED50 with Rattus norvegicus [35] is 0.91 µmol/kg; in the test with Rattus norvegicus [36], 0.24 µmol/kg. Moreover, at D(2) dopamine receptor [29], the Intrinsic activity turned out to be 0%. Further, the Ki on D(2) dopamine receptor [13] came to 25 nM.
